# Assay results published in ChEMBL document CHEMBL5247593, “Novel heterocyclic hydroxamates as inhibitors of the mycobacterial zinc metalloprotease Zmp1 to probe its mechanism of function” (Eur J Med Chem, 2022).
# Assays:
# [1] = tested on: Mycobacterium tuberculosis; experiment: Inhibition of Mycobacterium tuberculosis Zmp1 at 8 to 40 uM by MALDI-TOF-MS analysis; conditions: dose 8-40 µM
# [2] = tested on: Mycobacterium tuberculosis; experiment: Antimycobacterial activity against Mycobacterium tuberculosis H37Ra ATCC 25177 assessed as inhibition of bacterial growth at 128 uM measured after 7 days by luminescence based analysis relative to control; assay type: functional; conditions: H37Ra ATCC 25177, 168 h, time 7 day
# RAW264.7 = experiment: Cytotoxicity against mouse RAW264.7 cells assessed as inhibition of cell growth measured after 72 hrs by resazurin staining based […] analysis; assay type: functional; conditions: RAW264.7, 72 h
# MRC5 = experiment: Cytotoxicity against human MRC5 cells assessed as inhibition of cell growth measured after 72 hrs by resazurin staining based […] analysis; assay type: functional; conditions: MRC5, 72 h
# [3] = tested on: Mycobacterium tuberculosis; experiment: Antimycobacterial activity against Mycobacterium tuberculosis H37Ra infected in mouse RAW264.7 cells assessed as reduction in intracellular bacterial survival at 128 uM incubated for 3 days by luminescence based analysis relative to control; assay type: functional; conditions: time 3 day
SMILES,inhibition [1],inhibition at 128 µM [2],IC50 (RAW264.7; read-out: IC50),IC50 (MRC5),Activity [3],IC50 (RAW264.7)
C=CCONC(=O)Cn1ccc(C(=O)N[C@@H](C)C(=O)N[C@H](C(=O)O)C(C)C)c1,27%,12.8%,> 128 µM,> 128 µM,–,–
COC(=O)[C@H](CC(C)C)NC(=O)c1ccc(/C=C2\SC(=O)N(CC(=O)NOCc3ccccc3)C2=O)cc1,5%,2%,> 128 µM,> 128 µM,80.3%,–
COC(=O)[C@@H](NC(=O)c1cccc(/C=C2\SC(=O)N(CC(=O)NOCc3ccccc3)C2=O)c1)C(C)C,–,6.3%,> 128 µM,> 128 µM,35.1%,–
COC(=O)[C@@H](NC(=O)c1ccc(/C=C2\SC(=O)N(CC(=O)NOCc3ccccc3)C2=O)cc1)C(C)C,41%,6.2%,> 128 µM,> 128 µM,83.2%,–
C=CCONC(=O)CN1C(=O)S/C(=C\c2cccc(C(=O)N[C@@H](CC(C)C)C(=O)OC)c2)C1=O,47%,3.2%,> 128 µM,> 128 µM,46.3%,–
NNC(=O)c1ccncc1 [ISONIAZID],–,100%,–,–,–,–
C=CCONC(=O)Cn1ccc(C(=O)NCC(=O)N[C@H](C(=O)O)C(C)C)c1,14%,–,–,–,–,–
COc1nc2ccc(Br)cc2cc1[C@@H](c1ccccc1)[C@@](O)(CCN(C)C)c1cccc2ccccc12 [BEDAQUILINE],–,100%,–,–,–,–
CC(C)C[C@H](NC(=O)CNC(=O)c1cn(CC(=O)NOCc2ccccc2)c2ccccc12)C(=O)O,57%,11.1%,> 128 µM,> 128 µM,–,–
CC(C)[C@H](NC(=O)[C@H](C)NC(=O)c1cn(CC(=O)NOCc2ccccc2)c2ccccc12)C(=O)O,59%,23.6%,> 128 µM,> 128 µM,–,–
C=CCONC(=O)Cn1ccc(C(=O)N[C@@H](C)C(=O)N[C@@H](CC(C)C)C(=O)O)c1,88%,13.8%,> 128 µM,> 128 µM,–,–
CO[C@H]1/C=C/O[C@@]2(C)Oc3c(C)c(O)c4c(O)c(c(/C=N/N5CCN(C)CC5)c(O)c4c3C2=O)NC(=O)/C(C)=C\C=C\[C@H](C)[C@H](O)[C@@H](C)[C@@H](O)[C@@H](C)[C@H](OC(C)=O)[C@@H]1C [RIFAMPIN],–,100%,–,–,–,–
CC(C)C[C@H](NC(=O)[C@H](C)NC(=O)c1ccn(CC(=O)NOCc2ccccc2)c1)C(=O)O,62%,3.2%,> 128 µM,> 128 µM,–,–
CC(C)[C@H](NC(=O)CNC(=O)c1ccn(CC(=O)NOCc2ccccc2)c1)C(=O)O,70%,5.9%,> 128 µM,> 128 µM,–,–
C=CCONC(=O)Cn1cc(C(=O)N[C@@H](C)C(=O)N[C@H](C(=O)O)C(C)C)c2ccccc21,50%,13.6%,> 128 µM,> 128 µM,–,–
C=CCONC(=O)Cn1cc(C(=O)NCC(=O)N[C@@H](CC(C)C)C(=O)O)c2ccccc21,47%,14.6%,> 128 µM,> 128 µM,–,–
C=CCONC(=O)CN1C(=O)S/C(=C\c2ccc(C(=O)N[C@H](C(=O)OC)C(C)C)cc2)C1=O,38%,8.2%,> 128 µM,> 128 µM,28.4%,–
C=CCONC(=O)Cn1cc(C(=O)NCC(=O)N[C@H](C(=O)O)C(C)C)c2ccccc21,56%,10.3%,> 128 µM,> 128 µM,–,–
C=CCONC(=O)CN1C(=O)S/C(=C\c2cccc(C(=O)N[C@H](C(=O)OC)C(C)C)c2)C1=O,–,3.4%,> 128 µM,> 128 µM,14.1%,–
CC(C)[C@H](NC(=O)CNC(=O)c1cn(CC(=O)NOCc2ccccc2)c2ccccc12)C(=O)O,69%,30.3%,> 128 µM,> 128 µM,37.2%,–
CC(C)C[C@H](NC(=O)CNC(=O)c1ccn(CC(=O)NOCc2ccccc2)c1)C(=O)O,26%,9.2%,> 128 µM,> 128 µM,–,–
C=CCONC(=O)CN1C(=O)S/C(=C\c2ccc(C(=O)N[C@@H](CC(C)C)C(=O)OC)cc2)C1=O,6%,4.4%,> 128 µM,> 128 µM,67.3%,–
C=CCONC(=O)Cn1cc(C(=O)N[C@@H](C)C(=O)N[C@@H](CC(C)C)C(=O)O)c2ccccc21,86%,12.4%,> 128 µM,> 128 µM,–,–
CC/C(=C(\c1ccccc1)c1ccc(OCCN(C)C)cc1)c1ccccc1 [TAMOXIFEN],–,–,–,17.2 µM,–,18.5 µM
C=CCONC(=O)Cn1ccc(C(=O)NCC(=O)N[C@@H](CC(C)C)C(=O)O)c1,13%,6.9%,> 128 µM,> 128 µM,–,–
CC(C)[C@H](NC(=O)[C@H](C)NC(=O)c1ccn(CC(=O)NOCc2ccccc2)c1)C(=O)O,16%,6.9%,> 128 µM,> 128 µM,–,–
COC(=O)[C@H](CC(C)C)NC(=O)c1cccc(/C=C2\SC(=O)N(CC(=O)NOCc3ccccc3)C2=O)c1,19%,4.2%,> 128 µM,> 128 µM,51.9%,–
CC(C)C[C@H](NC(=O)[C@H](C)NC(=O)c1cn(CC(=O)NOCc2ccccc2)c2ccccc12)C(=O)O,56%,13.6%,> 128 µM,> 128 µM,–,–
